Patent publication US8381774B2, “Methods for loading a drug eluting medical device” (Medtronic Vascular, Inc., priority 2009, dated 2013)

Assay: ability of solvents and dispersion mediums to dissolve the therapeutic substance (sirolimus)
Format: physicochemical
Method: Solution 524 is a homogeneous mixture in which therapeutic substance 112 dissolves within a solvent or a solvent mixture. In one embodiment, solution 524 includes a high-capacity solvent 528 which is an organic solvent that has a high capacity to dissolve therapeutic substance 112. High capacity as utilized herein is defined as an ability to dissolve therapeutic substance 112 at concentrations greater than 500 mg of substance per milliliter of solvent. Examples of high capacity drug dissolving solvents for sirolimus and similar substances include but are not limited to tetrahydrofuran (THF), di-chloromethane (DCM), chloroform, and di-methyl-sulfoxide (DMSO). In addition to the high-capacity solvent, solution 524 may include an excipient 526 in order to assist in drug elution. In one embodiment, excipient 526 may be a surfactant such as but not limited to sorbitan fatty acid esters such as sorbitan monooleate and sorbitan monolaurate, polysorbates such as polysorbate 20, polysorbate 60, and polysorbate 80, cyclodextrins such as 2-hydroxypropyl-beta-cyclodextrin and 2,6-di-O-methyl-beta-cyclodextrin, sodium dodecyl sulfate, octyl glucoside, and low molecular weight poly(ethylene glycol)s. In another embodiment, excipient 526 may be a hydrophilic agent such as but not limited to salts such as sodium chloride and other materials such as urea, citric acid, and ascorbic acid. […]

solubility in hexane (hexane (precipitator solvent)): insoluble
solubility in water (water): insoluble
Structure (SMILES): CO[C@H]1C[C@@H]2CC[C@@H](C)[C@@](O)(O2)C(=O)C(=O)N2CCCC[C@H]2C(=O)O[C@H]([C@H](C)C[C@@H]2CC[C@@H](O)[C@H](OC)C2)CC(=O)[C@H](C)/C=C(\C)[C@@H](O)[C@@H](OC)C(=O)[C@H](C)C[C@H](C)/C=C/C=C/C=C/1C [sirolimus]
